Columns and labels:
Assay in all cases: radiometric filter-binding kinase assay, Kinase HotSpot
Conditions in all cases: compound 0.5 µM; ATP 10 µM
CAMK1 (human) = CAMK1 (human) (UniProt Q14012)
PDPK1 (human) = PDPK1 (human) (UniProt O15530)
PRKG2 (human) = PRKG2 (human) (UniProt Q13237)
MARK2 (human) = MARK2 (human) (UniProt Q7KZI7)
SIK2 (human) = SIK2 (human) (UniProt Q9H0K1)
GRK6 (human) = GRK6 (human) (UniProt P43250)
CDK9 CCNT1 (human) = CDK9 CCNT1 (human) (UniProt P50750+O60563)
CDK6 CCND1 (human) = CDK6 CCND1 (human) (UniProt Q00534+P24385)
AXL (human) = AXL (human) (UniProt P30530)
Sequence of AXL (human) (P30530 whole entry, looked up): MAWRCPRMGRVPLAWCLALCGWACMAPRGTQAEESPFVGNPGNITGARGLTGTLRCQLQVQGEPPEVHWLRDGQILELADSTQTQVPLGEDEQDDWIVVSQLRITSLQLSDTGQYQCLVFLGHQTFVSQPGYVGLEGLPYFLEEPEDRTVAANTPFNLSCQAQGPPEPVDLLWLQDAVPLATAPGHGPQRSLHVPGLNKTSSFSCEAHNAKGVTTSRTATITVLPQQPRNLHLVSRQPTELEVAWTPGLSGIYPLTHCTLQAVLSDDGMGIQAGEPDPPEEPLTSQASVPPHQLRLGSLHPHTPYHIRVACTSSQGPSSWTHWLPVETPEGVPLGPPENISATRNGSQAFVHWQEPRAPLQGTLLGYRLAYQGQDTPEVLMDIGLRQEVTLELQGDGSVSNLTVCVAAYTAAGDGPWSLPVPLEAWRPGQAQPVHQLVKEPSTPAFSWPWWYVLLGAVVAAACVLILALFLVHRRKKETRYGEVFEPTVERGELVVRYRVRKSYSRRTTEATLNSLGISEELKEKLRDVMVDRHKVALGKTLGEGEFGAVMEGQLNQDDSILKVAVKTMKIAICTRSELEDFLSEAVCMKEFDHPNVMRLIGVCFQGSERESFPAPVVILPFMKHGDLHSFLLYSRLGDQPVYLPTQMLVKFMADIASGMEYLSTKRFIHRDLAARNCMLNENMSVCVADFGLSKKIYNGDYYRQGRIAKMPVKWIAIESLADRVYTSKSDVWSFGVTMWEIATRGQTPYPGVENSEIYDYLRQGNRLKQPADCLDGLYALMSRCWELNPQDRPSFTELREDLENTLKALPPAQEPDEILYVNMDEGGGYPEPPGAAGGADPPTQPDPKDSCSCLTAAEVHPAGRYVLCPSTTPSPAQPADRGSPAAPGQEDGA

MAP3K10 (human) = MAP3K10 (human) (UniProt Q02779)
STK17A (human) = STK17A (human) (UniProt Q9UEE5)
ZAP70 (human) = ZAP70 (human) (UniProt P43403)
Sequence of ZAP70 (human) (P43403 whole entry, looked up): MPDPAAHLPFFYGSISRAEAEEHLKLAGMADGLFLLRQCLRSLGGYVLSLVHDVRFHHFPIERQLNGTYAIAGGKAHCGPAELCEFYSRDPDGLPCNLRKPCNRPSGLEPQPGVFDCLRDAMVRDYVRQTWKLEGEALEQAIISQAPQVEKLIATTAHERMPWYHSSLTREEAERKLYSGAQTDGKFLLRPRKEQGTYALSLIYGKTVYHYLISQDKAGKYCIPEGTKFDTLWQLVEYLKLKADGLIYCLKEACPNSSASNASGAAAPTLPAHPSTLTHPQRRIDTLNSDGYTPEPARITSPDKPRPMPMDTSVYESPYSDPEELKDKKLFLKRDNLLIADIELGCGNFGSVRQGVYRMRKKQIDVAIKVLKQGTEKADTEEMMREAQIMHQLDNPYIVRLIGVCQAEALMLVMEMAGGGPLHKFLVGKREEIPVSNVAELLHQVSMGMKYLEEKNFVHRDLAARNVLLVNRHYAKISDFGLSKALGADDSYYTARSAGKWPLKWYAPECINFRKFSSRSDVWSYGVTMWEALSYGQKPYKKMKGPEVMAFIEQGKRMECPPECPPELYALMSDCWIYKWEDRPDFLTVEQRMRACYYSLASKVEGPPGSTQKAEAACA

FGFR4 (human) = FGFR4 (human) (UniProt P22455)
CLK4 (human) = CLK4 (human) (UniProt Q9HAZ1)
RPS6KA3 KD1 KD2 (human) = RPS6KA3 KD1 KD2 (human) (UniProt P51812)
PAK3 (human) = PAK3 (human) (UniProt O75914)
LTK (human) = LTK (human) (UniProt P29376)
WEE1 (human) = WEE1 (human) (UniProt P30291)
PAK2 (human) = PAK2 (human) (UniProt Q13177)
PLK2 (human) = PLK2 (human) (UniProt Q9NYY3)
Sequence of PLK2 (human) (Q9NYY3 whole entry, looked up): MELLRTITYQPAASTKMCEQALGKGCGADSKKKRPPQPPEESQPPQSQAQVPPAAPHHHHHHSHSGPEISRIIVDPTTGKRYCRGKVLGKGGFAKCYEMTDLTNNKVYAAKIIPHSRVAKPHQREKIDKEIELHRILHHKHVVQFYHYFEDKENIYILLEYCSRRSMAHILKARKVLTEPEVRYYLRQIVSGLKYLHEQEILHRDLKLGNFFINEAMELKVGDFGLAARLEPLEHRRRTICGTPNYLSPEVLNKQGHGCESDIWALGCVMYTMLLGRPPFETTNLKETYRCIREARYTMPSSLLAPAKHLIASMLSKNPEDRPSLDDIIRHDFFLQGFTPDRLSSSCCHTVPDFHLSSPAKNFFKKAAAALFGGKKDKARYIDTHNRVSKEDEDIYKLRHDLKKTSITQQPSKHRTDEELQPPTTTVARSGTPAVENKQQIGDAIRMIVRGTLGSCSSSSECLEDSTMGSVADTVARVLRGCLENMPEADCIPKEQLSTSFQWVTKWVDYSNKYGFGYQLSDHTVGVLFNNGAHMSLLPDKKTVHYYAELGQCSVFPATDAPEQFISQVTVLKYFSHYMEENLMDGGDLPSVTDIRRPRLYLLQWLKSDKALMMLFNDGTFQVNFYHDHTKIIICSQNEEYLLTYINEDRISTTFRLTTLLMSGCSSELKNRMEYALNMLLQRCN

NEK7 (human) = NEK7 (human) (UniProt Q8TDX7)
RPS6KA1 KD1 KD2 (human) = RPS6KA1 KD1 KD2 (human) (UniProt Q15418)
NTRK1 (human) = NTRK1 (human) (UniProt P04629)
CSNK1A1 (human) = CSNK1A1 (human) (UniProt P48729)
Sequence of CSNK1A1 (human) (P48729 whole entry, looked up): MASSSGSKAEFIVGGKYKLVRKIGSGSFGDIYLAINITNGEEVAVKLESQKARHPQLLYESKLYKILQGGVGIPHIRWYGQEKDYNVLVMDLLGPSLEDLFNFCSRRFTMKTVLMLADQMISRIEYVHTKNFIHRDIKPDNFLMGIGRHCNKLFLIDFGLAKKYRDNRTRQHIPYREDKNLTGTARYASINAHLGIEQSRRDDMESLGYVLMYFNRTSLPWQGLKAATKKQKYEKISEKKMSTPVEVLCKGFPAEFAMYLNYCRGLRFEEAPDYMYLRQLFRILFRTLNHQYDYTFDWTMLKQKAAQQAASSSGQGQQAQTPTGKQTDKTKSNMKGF

ROCK2 (human) = ROCK2 (human) (UniProt O75116)
NEK9 (human) = NEK9 (human) (UniProt Q8TD19)
Sequence of NEK9 (human) (Q8TD19 whole entry, looked up): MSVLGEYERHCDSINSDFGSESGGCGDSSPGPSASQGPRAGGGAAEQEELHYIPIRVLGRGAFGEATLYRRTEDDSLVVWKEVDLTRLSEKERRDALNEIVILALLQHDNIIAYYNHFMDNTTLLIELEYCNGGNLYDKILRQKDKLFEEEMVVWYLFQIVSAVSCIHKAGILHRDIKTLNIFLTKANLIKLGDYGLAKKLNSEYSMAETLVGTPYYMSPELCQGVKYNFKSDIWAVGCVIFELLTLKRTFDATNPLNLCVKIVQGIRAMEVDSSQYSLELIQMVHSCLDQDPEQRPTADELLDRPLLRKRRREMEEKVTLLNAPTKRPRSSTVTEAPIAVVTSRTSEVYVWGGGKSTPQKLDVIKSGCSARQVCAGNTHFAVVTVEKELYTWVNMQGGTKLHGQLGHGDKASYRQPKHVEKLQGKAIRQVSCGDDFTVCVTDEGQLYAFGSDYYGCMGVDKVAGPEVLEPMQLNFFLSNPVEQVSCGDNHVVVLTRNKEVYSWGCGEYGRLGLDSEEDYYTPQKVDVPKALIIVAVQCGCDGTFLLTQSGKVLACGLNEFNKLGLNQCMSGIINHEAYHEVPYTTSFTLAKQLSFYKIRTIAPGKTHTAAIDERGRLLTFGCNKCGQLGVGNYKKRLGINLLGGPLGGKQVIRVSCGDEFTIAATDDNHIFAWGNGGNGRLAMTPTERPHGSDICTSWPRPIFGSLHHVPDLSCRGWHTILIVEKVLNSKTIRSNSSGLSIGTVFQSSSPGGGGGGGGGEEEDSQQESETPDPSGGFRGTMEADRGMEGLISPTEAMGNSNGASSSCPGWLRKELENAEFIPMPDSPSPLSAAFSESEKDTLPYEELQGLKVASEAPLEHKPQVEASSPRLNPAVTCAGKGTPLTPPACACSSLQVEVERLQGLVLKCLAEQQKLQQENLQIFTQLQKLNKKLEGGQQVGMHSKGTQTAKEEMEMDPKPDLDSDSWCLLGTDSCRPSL

SRMS (human) = SRMS (human) (UniProt Q9H3Y6)
RET (human) = RET (human) (UniProt P07949)
Sequence of RET (human) (P07949 whole entry, looked up): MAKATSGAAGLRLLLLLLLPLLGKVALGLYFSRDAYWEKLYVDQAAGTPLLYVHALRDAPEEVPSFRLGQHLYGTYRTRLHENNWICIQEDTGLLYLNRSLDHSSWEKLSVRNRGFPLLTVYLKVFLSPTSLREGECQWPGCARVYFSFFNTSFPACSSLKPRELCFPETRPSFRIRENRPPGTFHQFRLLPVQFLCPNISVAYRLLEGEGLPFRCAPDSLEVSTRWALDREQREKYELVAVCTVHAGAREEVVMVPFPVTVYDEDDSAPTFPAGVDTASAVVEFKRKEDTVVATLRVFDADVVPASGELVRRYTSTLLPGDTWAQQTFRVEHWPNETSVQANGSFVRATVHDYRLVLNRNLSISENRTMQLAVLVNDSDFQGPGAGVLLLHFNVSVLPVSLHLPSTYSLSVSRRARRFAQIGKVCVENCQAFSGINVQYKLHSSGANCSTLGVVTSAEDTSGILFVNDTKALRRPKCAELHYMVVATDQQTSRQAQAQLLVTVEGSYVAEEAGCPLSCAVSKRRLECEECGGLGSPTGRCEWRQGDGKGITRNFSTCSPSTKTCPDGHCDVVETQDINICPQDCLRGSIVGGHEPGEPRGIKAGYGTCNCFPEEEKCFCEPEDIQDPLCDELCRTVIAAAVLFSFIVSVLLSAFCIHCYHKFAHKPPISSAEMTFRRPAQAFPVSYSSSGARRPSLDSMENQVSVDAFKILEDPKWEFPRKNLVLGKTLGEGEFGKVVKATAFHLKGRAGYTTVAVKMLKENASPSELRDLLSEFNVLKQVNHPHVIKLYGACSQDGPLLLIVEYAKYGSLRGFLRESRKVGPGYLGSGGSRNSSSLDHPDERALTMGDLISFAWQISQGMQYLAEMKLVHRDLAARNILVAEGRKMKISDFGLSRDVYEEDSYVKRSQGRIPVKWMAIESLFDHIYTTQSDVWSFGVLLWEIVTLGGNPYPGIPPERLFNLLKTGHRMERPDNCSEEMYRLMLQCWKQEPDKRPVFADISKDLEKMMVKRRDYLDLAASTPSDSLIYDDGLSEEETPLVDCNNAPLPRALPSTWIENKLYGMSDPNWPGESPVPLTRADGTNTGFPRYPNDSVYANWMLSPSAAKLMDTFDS

ADRBK2 (human) = ADRBK2 (human) (UniProt P35626)
MST1R (human) = MST1R (human) (UniProt Q04912)
MAPK12 (human) = MAPK12 (human) (UniProt P53778)
Sequence of MAPK12 (human) (P53778 whole entry, looked up): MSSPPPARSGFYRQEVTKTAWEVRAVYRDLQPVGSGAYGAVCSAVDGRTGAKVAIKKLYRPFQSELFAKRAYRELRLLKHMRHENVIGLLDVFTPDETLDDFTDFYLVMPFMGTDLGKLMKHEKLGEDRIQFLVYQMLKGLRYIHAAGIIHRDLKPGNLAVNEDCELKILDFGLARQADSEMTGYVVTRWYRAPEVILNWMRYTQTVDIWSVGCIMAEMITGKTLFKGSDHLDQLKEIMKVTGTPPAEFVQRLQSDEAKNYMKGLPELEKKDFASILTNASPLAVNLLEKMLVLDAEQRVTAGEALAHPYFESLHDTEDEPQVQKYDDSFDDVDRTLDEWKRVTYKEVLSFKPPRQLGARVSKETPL

PRKCG (human) = PRKCG (human) (UniProt P05129)
LRRK2 (human) = LRRK2 (human) (UniProt Q5S007)
MAP3K11 (human) = MAP3K11 (human) (UniProt Q16584)
PLK1 (human) = PLK1 (human) (UniProt P53350)
TAOK1 (human) = TAOK1 (human) (UniProt Q7L7X3)
MAPKAPK5 (human) = MAPKAPK5 (human) (UniProt Q8IW41)
NEK1 (human) = NEK1 (human) (UniProt Q96PY6)
STK25 (human) = STK25 (human) (UniProt O00506)
PAK4 (human) = PAK4 (human) (UniProt O96013)
EPHB3 (human) = EPHB3 (human) (UniProt P54753)
STK24 (human) = STK24 (human) (UniProt Q9Y6E0)

COc1cc2c(N3CCN(C(=O)Nc4ccc(OC(C)C)cc4)CC3)ncnc2cc1OCCCN1CCCCC1
residual activity (CAMK1 (human)): 101%
residual activity (PDPK1 (human)): 96.8%
residual activity (PRKG2 (human)): 105%
residual activity (MARK2 (human)): 109%
residual activity (SIK2 (human)): 98.9%
residual activity (GRK6 (human)): 105%
residual activity (CDK9 CCNT1 (human)): 100%
residual activity (CDK6 CCND1 (human)): 94.6%
residual activity (AXL (human)): 99%
residual activity (MAP3K10 (human)): 101%
residual activity (STK17A (human)): 103%
residual activity (ZAP70 (human)): 116%
residual activity (FGFR4 (human)): 87.8%
residual activity (CLK4 (human)): 88.7%
residual activity (RPS6KA3 KD1 KD2 (human)): 96.6%
residual activity (PAK3 (human)): 105%
residual activity (LTK (human)): 101%
residual activity (WEE1 (human)): 97.5%
residual activity (PAK2 (human)): 112%
residual activity (PLK2 (human)): 99.8%
residual activity (NEK7 (human)): 93.4%
residual activity (RPS6KA1 KD1 KD2 (human)): 94.8%
residual activity (NTRK1 (human)): 48.1%
residual activity (CSNK1A1 (human)): 101%
residual activity (ROCK2 (human)): 90.8%
residual activity (NEK9 (human)): 97.2%
residual activity (SRMS (human)): 95.8%
residual activity (RET (human)): 91.5%
residual activity (ADRBK2 (human)): 97.6%
residual activity (MST1R (human)): 99.2%
residual activity (MAPK12 (human)): 96.4%
residual activity (PRKCG (human)): 90.9%
residual activity (LRRK2 (human)): 123%
residual activity (MAP3K11 (human)): 100%
residual activity (PLK1 (human)): 101%
residual activity (TAOK1 (human)): 103%
residual activity (MAPKAPK5 (human)): 91.9%
residual activity (NEK1 (human)): 119%
residual activity (STK25 (human)): 93.4%
residual activity (PAK4 (human)): 103%
residual activity (EPHB3 (human)): 84.2%
residual activity (STK24 (human)): 102%
